Holding throughout (type): in vivo
A short description of data set [1]: Pharmacokinetic evaluation in mouse (oral). The note with it: male; BALB/c mouse, oral 0.8 mg/kg, plasma. The method, then:
Each test compound was dissolved in 10% HP-β-CD (Nihon Shokuhin Kako Co., Ltd.) to prepare a solution to be administered (0.08 mg/mL, as a solution to be administered for oral administration). To each BALB/c mouse (male, 7-week old, Charles River Laboratories Japan, Inc.), each compound was orally administered at a dose of 0.8 mg/kg. Blood was collected from the jugular vein or heart with time up to 24 hours after the administration. The obtained blood was centrifuged to collect blood plasma. The blood plasma was pretreated by methanol extraction method, and the concentration of the compound was analyzed by LC/MS/MS (ESI positive mode).
In this table, Cmax represents a maximum plasma concentration; and AUC0-∞ represents an area under the curve of the plasma concentration of the compound from after the compound administration to infinite time.

Data set [2] deals with ICR mouse. The data set can be described thus: Evaluation of hepatotoxicity in mouse (plasma AST). The note with it: oral 500 mg/kg, plasma on the day after administration. As to the method:
Compound (I) was suspended in 0.5% methylcellulose (Wako Pure Chemical Industries, Ltd.) to prepare a 50 mg/mL solution to be administered. To each ICR mouse (male, 7-week old, Charles River Laboratories Japan, Inc.), each compound was orally administered at a dose of 500 mg/kg. On the day after the administration, blood was collected from the posterior vena cava, and the obtained blood was centrifuged to collect blood plasma. AST (aspartate aminotransferase) value, which is a marker of hepatic disorders in blood plasma, was measured with a biochemistry automatic analyzer (Hitachi 7070, Hitachi, Ltd.). Comparative Compound 4 was suspended in 0.5% sodium carboxymethylcellulose (Wako Pure Chemical Industries, Ltd.) before use.

Data set [3] deals with colonic disorders in DSS-induced chronic colitis model. The data set can be described thus: Colonic disorders in DSS-induced chronic colitis model. Particulars: BALB/c mouse, oral 10 mg/kg once Day 27, twice a day Day 28-31; scores Day 28-32. An excerpt: The action of Compound (I) on colonic disorders in inflammatory bowel disease models was studied. As the inflammatory bowel disease models, models partially modified from a TNBS-induced colitis model and a DSS-induced chronic colitis model described in documents (Gastroenterology, 1989, Vol. 96, pp. 29-36 and Am. J. Physiol. Gastrointest. Liver Physiol., 2004, Vol. 287, pp. G115-124) were used.
To each BALB/cCrSlc mouse (female, 9-week old, Japan SLC, Inc.), DSS (Molecular Weight: 36-50 kDa; MP Biomedicals) dissolved in sterile ultrapure water was administered via free drinking for 5 days from the day of the start of the administration via drinking water (this day was considered as Day 0 after the start of the administration via drinking water), and then switched to administration of sterile ultrapure water via free drinking for 5 days. This cycle was repeated again, and DSS was further administered via free drinking for another 7 days to produce the colitis model. As an index of colitis symptoms, stool consistency scores were used. The stool consistency scores were based on the following criteria: normal stool was defined as score 0; loose stool was defined as score 2; and diarrhea was defined as score 4. […]

Data set [4] concerns hyperalgesia in Chung model. The data set can be described thus: Hyperalgesia in neuropathic pain model (Chung model), von Frey test. The note with it: SD rat, Chung model day 7, oral 100 mg/kg, 90 minutes after administration. An excerpt: (§1) The action of Compound (I) on hyperalgesia in pain models was studied. As the pain models, models partially modified from an inflammatory pain model (a carrageenin paw edema pain model) and neuropathic pain models (Bennett model and Chung model) described in documents (Anesth. Analg., 2009, Vol. 108, pp. 1680-1687; Pain, 1988, Vol. 33, pp. 87-107; and Pain, 1992, Vol. 50, pp. 355-363) were used.
The Chung model was produced by completely ligating the L5 and L6 spinal nerves of each Crl:CD (SD) rat (male, 6-week old, Charles River Laboratories Japan, Inc.) with a silk suture (5-0). Seven days after the Chung model was produced, each test compound was orally administered, and von Frey test was performed 90 minutes after the administration. In addition, fifteen days after the Chung model was produced, each test compound was orally administered, and plantar test was performed 90 minutes after the administration. The von Frey test was carried out by measuring the pain threshold (g) of the left footpad (model foot) using Dynamic Plantar Aesthesiometer (37400, Ugo Basile) wherein the maximum pressure was set to 30.0 g and the time required to reach the maximum pressure was set to 40 seconds. The plantar test was carried out by the method described above. […]

Data set [5] relates to hyperalgesia in Chung model. The data set can be described thus: Hyperalgesia in neuropathic pain model (Chung model), plantar test. The note with it: SD rat, Chung model day 15, oral 100 mg/kg, 90 minutes after administration; FIG. 3.
Source text: as §1
The Bennett model was produced by lightly ligating the sciatic nerve in the left thigh of each Crl:CD (SD) rat (male, 6-week old, Charles River Laboratories Japan, Inc.) at 4 points with chromic catgut (4-0). Fourteen days after the Bennett model was produced, each test compound was orally administered, and plantar test was performed 90 minutes after the administration. The plantar test was carried out by measuring the pain threshold (sec) of the left footpad (model foot) using a plantar thermal stimulation device (Plantar test 7370, Ugo Basile) wherein the thermal stimulus intensity was set to 60. Each test compound was suspended in 0.5 w/v % methylcellulose (Wako Pure Chemical Industries, Ltd.) and the obtained solution was orally administered. Compound 46b described in the Examples was administered at a dose of 100 mg/kg, and gabapentin (Toronto Research Chemicals), which is an anticonvulsant, was administered as a comparative control agent at a dose of 100 mg/kg. […]

One may read the AUC(0-inf) as total exposure, with the tail of the curve extrapolated. One may read the Cmax as the highest concentration seen after dosing.

In data set [1], `COc1c(NC(=O)N[C@@H]2Cc3ccccc3[C@@H]2O)cc(C(C)(C)C)cc1[C@@H](O)C(F)(F)F` [Compound 46b, 1-(5-tert-butyl-2-methoxy-3-((R)-2,2,2-trifluoro-1-hydroxyethyl)phenyl)-3-((1S,2R)-1-hydroxy-2,3-dihydro-1H-indene-2-yl)urea] displayed an AUC(0-inf) of 588 ng·h/mL and a Cmax of 561 ng/mL. The AST value in data set [2] is reported as 47 U/L. Further, the “stool consistency score (total)” value in data set [3] is on record as 5.7±0.8. For the same molecule, the “pain threshold, von Frey test” value in data set [4] worked out at 7.0 ± 0.3 g. Also, the “pain threshold (sec), plantar test, compared to solvent-administered group” value in data set [5] is “significantly elevated”.
